Consider one cell line from the supplement of paper PMC10307832.

What all share (assay): relative viability (nuclei count vs DMSO), 5 days (fraction); higher = more cells survive
Compound in assay [1]: NS(=O)(=O)OC[C@@H]1C[C@@H](n2ccc3c(N[C@H]4CCc5ccccc54)ncnc32)C[C@@H]1O [MLN4924] + CCNC(=O)c1noc(-c2cc(C(C)C)c(O)cc2O)c1-c1ccc(CN2CCOCC2)cc1 [Luminespib] (partner 0.01 µM)
The essentials: (§1)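 Relative viability was taken as the ratio of nuclei in treated wells to nuclei in vehicle wells. Lung cancer cell lines in 1536-well plates received compounds by pin tool one day after seeding, either one drug alone or a fixed anchor-drug dose plus five library-drug doses (not always all listed) in √10 steps. Nuclei were counted on 4× images after 5 days of treatment, and values are medians of duplicate plates.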

Compound in assay [2]: C1CC(C1)(C(=O)O)C(=O)O.[NH2-].[NH2-].[Pt+2] [Carboplatin] + CS(=O)(=O)CCNCc1ccc(-c2ccc3ncnc(Nc4ccc(OCc5cccc(F)c5)c(Cl)c4)c3c2)o1 [Lapatinib] (partner 2 µM)
The method in brief:
as §1

Compound in assay [3]: NS(=O)(=O)OC[C@@H]1C[C@@H](n2ccc3c(N[C@H]4CCc5ccccc54)ncnc32)C[C@@H]1O [MLN4924] + C[C@@H](Oc1cc(-c2cnn(C3CCNCC3)c2)cnc1N)c1c(Cl)ccc(F)c1Cl [Crizotinib] (partner 1 µM)
The essentials: as §1

Compound in assay [4]: CC[C@H](C)N1C=C(C2=C(C=C(C=C21)C3=CN=C(C=C3)N4CCNCC4)C(=O)NCC5=C(C=C(NC5=O)C)C)C [GSK126] + O=C(CCCCCCC(=O)Nc1ccccc1)NO [Vorinostat] (partner 1 µM)
The essentials: as §1

Regarding UMC-11, the relative viability in assay [1] (first compound 0.04 µM) is 0.598; in assay [1] (first compound 0.1265 µM), 0.351; in assay [1] (first compound 0.4 µM) it was 0.285; in assay [1] (first compound 1.265 µM) it was 0.17; in assay [1] (first compound 4 µM) it was 0.182; in assay [2] (first compound 0.08 µM), 1.01. The relative viability is 0.941 in assay [2] (first compound 0.253 µM); 1.07 in assay [2] (first compound 0.8 µM); 1.04 in assay [2] (first compound 2.53 µM); 0.847 in assay [2] (first compound 8 µM); 0.298 in assay [3] (first compound 0.04 µM); 0.184 in assay [3] (first compound 0.1265 µM). Also, the relative viability in assay [3] (first compound 0.4 µM) is 0.234; in assay [3] (first compound 1.265 µM), 0.0782; in assay [3] (first compound 4 µM), 0.0855; in assay [4] (first compound 0.08 µM) it was 0.409; in assay [4] (first compound 0.253 µM), 0.381; in assay [4] (first compound 0.8 µM), 0.356. In addition, the relative viability turned out to be 0.459 in assay [4] (first compound 2.53 µM) and 0.341 in assay [4] (first compound 8 µM).
